According to patent publication US20080171350A1, “Neural Cell Differentiation Method From Es Cells” (NOVARTIS FORSCHUNGSSTIFTUNG, ZWEIGNIEDERLASSUNG FRIEDRICH …, priority 2004, published 2008):

Tested on: ES cells-derived neurons
Assay: Whole-cell patch-clamp recordings on ES cells-derived neurons
Format: cell-based, mouse
Conditions: cells in culture for 10 and up to 22 days

NS(=O)(=O)c1cccc2c1c([N+](=O)[O-])cc1nc(O)c(O)nc12 [NBQX]
block of spontaneous synaptic currents (SSCs): blocking of synaptic currents
